# Reference: publication PMC5130005, “Indolin-2-one compounds targeting thioredoxin reductase as potential anticancer drug leads” (Oncotarget, 2016)
# System: MCF-7 cells
# Assay: MTT cell viability assay, MCF-7 cells
# Type: cell-based
# Details: Homo sapiens, MCF7, 72 h, mean ± SD of 3 experiments, read-out: GI50 (50% growth inhibition concentration), MCF-7 cells
# Method: HCT 116 and MCF-7 cells were seeded in 96-well plates at a density of 1 × 10^4 cells/well and allowed to grow for 20-24 h before addition of test compounds. DMSO stocks of indolin-2-one compounds were serially diluted in medium each time an assay was performed. Cell viability was determined at the time of compound addition (time 0) and after 72 h of compound treatment by reduction of 3-(4,5-dimethylthiazol-2-yl)-2,5-diphenyltetrazolium bromide (MTT) by dehydrogenases in viable cells. MTT was added into each well (final concentration 400 μg/ml) and the plates were incubated for 4 h at 37°C. The supernatants were aspirated and upon solubilization of the formed formazan crystals in DMSO:glycine buffer pH 10.5 (ratio 4:1), absorbance at 550 nm was measured. 50% growth inhibition concentrations (GI50) and 50% lethal concentrations (LC50) values were calculated.
row,Compound,GI50 [µM]
1,"CC(=O)C=C1C(=O)N(C)c2ccccc21 [Compound 1, 1-methyl-3(2-oxopropylidene)indolin-2-one]",15.1 ± 4.1
2,CCCCN1C(=O)/C(=C/C(C)=O)c2ccccc21 [Compound 4],6.4 ± 1.5
3,CC(=O)/C=C1/C(=O)N(Cc2ccccc2)c2ccccc21 [Compound 5],4.5 ± 0.6
4,CN1C(=O)/C(=C/C(=O)c2ccccc2)c2ccccc21 [Compound 6],14 ± 3.7

# Same assay, conditions: Homo sapiens, MCF7, 72 h, mean ± SD of 3 experiments, read-out: LC50 (50% lethal concentration), MCF-7 cells
row,Compound,CC50 [µM]
1,"CC(=O)C=C1C(=O)N(C)c2ccccc21 [Compound 1, 1-methyl-3(2-oxopropylidene)indolin-2-one]",27.6 ± 0.4
2,CCCCN1C(=O)/C(=C/C(C)=O)c2ccccc21 [Compound 4],22.4 ± 3.6
3,CC(=O)/C=C1/C(=O)N(Cc2ccccc2)c2ccccc21 [Compound 5],9.6 ± 0.2
4,CN1C(=O)/C(=C/C(=O)c2ccccc2)c2ccccc21 [Compound 6],27.1 ± 0.5

# Molecular target: T1, bovine GPx (Bos taurus, UniProt P00435)
# T1 construct: purchased Sigma
# T1 sequence (P00435 1-205): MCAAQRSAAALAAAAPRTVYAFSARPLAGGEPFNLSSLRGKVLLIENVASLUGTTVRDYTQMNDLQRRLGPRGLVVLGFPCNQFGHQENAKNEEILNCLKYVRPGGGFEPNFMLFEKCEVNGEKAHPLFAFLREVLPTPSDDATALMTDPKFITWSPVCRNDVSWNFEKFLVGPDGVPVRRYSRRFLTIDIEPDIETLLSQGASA
# Assay: in vitro bovine GPx activity assay
# Type: biochemical
# Details: 60 min incubation, 1-100 μM, 100 nM bovine GPx
# Method: For determination of in vitro bovine GPx activity, compounds of concentrations 1-100 μM were incubated with 100 nM bovine GPx, 20 nM yeast GR, 1 mM GSH and 200 μM NADPH in a volume of 100 μl phosphate buffer (0.1 M sodium phosphate, 2 mM EDTA pH 7.5) for 1 h at room temperature. H2O2 solution in phosphate buffer was added to initiate the reaction (final concentration 1.5 mM). NADPH consumption was monitored at 340 nm using the VersaMax microplate reader. The cellular GPx activity was determined similarly except lysates of HCT 116 and MCF-7 cells (25 μg protein) were used instead of bovine GPx. The results were calculated based on decrease in absorbance in the initial 3 min and presented as % of GPx activity of drug-treated sample over that of DMSO-treated sample.
row,Compound,bovine GPx activity
1,"CC(=O)C=C1C(=O)N(C)c2ccccc21 [Compound 1, 1-methyl-3(2-oxopropylidene)indolin-2-one]",uninhibited
2,CCCCN1C(=O)/C(=C/C(C)=O)c2ccccc21 [Compound 4],uninhibited
3,CC(=O)/C=C1/C(=O)N(Cc2ccccc2)c2ccccc21 [Compound 5],uninhibited
4,CN1C(=O)/C(=C/C(=O)c2ccccc2)c2ccccc21 [Compound 6],uninhibited

# Molecular target: T2, TrxR in HCT 116 cells (Homo sapiens, UniProt Q16881)
# T2 construct: Lysates of HCT 116 cells treated with indicated concentrations of selected SCA analogs for 10 h; endogenous in cells; host or cells: HCT 116
# T2 sequence (Q16881 1-499 isoform Q16881-5): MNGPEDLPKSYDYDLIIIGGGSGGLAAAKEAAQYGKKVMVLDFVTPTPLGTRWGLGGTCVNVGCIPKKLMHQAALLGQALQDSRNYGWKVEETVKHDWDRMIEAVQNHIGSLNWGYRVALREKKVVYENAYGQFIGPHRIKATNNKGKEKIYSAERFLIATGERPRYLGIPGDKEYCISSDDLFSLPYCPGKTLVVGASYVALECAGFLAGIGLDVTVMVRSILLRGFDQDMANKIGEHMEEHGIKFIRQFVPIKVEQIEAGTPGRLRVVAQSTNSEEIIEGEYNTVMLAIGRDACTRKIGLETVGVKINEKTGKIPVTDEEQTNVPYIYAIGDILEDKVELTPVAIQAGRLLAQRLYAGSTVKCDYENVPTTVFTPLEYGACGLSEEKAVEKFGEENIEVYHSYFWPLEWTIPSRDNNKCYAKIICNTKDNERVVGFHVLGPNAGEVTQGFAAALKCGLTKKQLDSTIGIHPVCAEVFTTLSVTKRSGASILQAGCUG
# Assay: cellular TrxR activity in HCT 116 cell lysates (insulin reduction assay)
# Type: cell-based
# Details: 10 h treatment, 20, 30, 40 and 50 μM
# Method: (§1) Cells were seeded onto 100 mm or 60 mm culture plates and upon reaching ~70% confluency, they were subjected to drug treatment for indicated durations. Pellets of compound-treated or DMSO control cells comprising both attached and floating cells were collected and lysed in lysis buffer (25 mM Tris-HCl pH 7.5, 100 mM NaCl, 2.5 mM EDTA, 2.5 mM EGTA, 20 mM NaF, 1 mM Na3VO4, 20 mM sodium β-glycerophosphate, 10 mM sodium pyrophosphate, 0.5% Triton X-100) with freshly added protease inhibitor cocktail (Roche Diagnostics). Prior to being used in Western blot analysis and/or cellular TrxR, GR, Trx and GPx activity determination, lysates were precleared by centrifugation and protein concentrations were determined using a modified Bradford assay (Bio-Rad Laboratories) as described in the manufacturer's manual. This procedure for collecting whole cell lysate was used for all experiments except for the Trx-redox state determination experiment. Equal amounts of protein (50 μg) in each lysate sample were separated by SDS-PAGE, followed by electroblotting onto nitrocellulose membranes. Electroblotted proteins on membranes were probed with a primary antibody and subsequently by a secondary antibody conjugated to HRP.
# (§2) Freshly collected cell lysates were used for measurement of activity of cellular Trx and TrxR. To measure TrxR activity, in each well of a 96-well plate, 25 μg of cell lysate was incubated in a final volume of 50 μl containing 85 mM Hepes (pH 7.6), 0.3 mM insulin, 10 μM rhTrx1, 2.5 mM EDTA and 660 μM NADPH for 40 min at 37°C. Controls containing lysates and all reaction reagents except rhTrx1 for each lysate sample were also set up. 200 μl of 1 mM DTNB in 6 M guanidine-HCl, 200 mM Tris-HCl pH 8.0 solution was added to quench the reaction. The amount of free thiols generated from insulin reduction was determined by DTNB reduction at 412 nm using the VersaMax microplate reader. To measure Trx activity, procedures were carried out similar to those for determining cellular TrxR activity, except that the cell lysates were incubated for 20 min with 300 nM recombinant rat TrxR in place of rhTrx1. Controls containing lysates and all reaction reagents except recombinant rat TrxR for each lysate sample were also set up. For each sample, Trx or TrxR activity was calculated as the absorbance at 412 nm subtracted from that of the corresponding control and expressed as a percentage of the activity measured in DMSO-treated cells.
row,Compound,"cellular TrxR activity, HCT 116 cells"
1,"CC(=O)C=C1C(=O)N(C)c2ccccc21 [Compound 1, 1-methyl-3(2-oxopropylidene)indolin-2-one]",did not cause apparent inhibition
2,CCCCN1C(=O)/C(=C/C(C)=O)c2ccccc21 [Compound 4],decrease in TrxR activity in a dose-dependent manner
3,CC(=O)/C=C1/C(=O)N(Cc2ccccc2)c2ccccc21 [Compound 5],decrease in TrxR activity in a dose-dependent manner
4,CN1C(=O)/C(=C/C(=O)c2ccccc2)c2ccccc21 [Compound 6],did not cause apparent inhibition

# Same assay, conditions: 10 h treatment, 40 and 50 μM, p < 0.05 vs DMSO
row,Compound,"cellular TrxR activity at 40 and 50 μM, HCT 116 cells"
1,CC(=O)/C=C1/C(=O)N(Cc2ccccc2)c2ccccc21 [Compound 5],significant reduction

# Molecular target: T3, TrxR in MCF-7 cells (Homo sapiens, UniProt Q16881)
# T3 construct: Lysates of MCF-7 cells treated with indicated concentrations of selected SCA analogs for 10 h; endogenous in cells; host or cells: MCF-7
# T3 sequence (Q16881 1-499 isoform Q16881-5): T2 sequence (Q16881 1-499 isoform Q16881-5)
# Assay: cellular TrxR activity in MCF-7 cell lysates (insulin reduction assay)
# Type: cell-based
# Details: 10 h treatment, 20, 30, 40 and 50 μM
# Method: as §1, §2
row,Compound,"cellular TrxR activity, MCF-7 cells"
1,"CC(=O)C=C1C(=O)N(C)c2ccccc21 [Compound 1, 1-methyl-3(2-oxopropylidene)indolin-2-one]",did not cause apparent inhibition
2,CCCCN1C(=O)/C(=C/C(C)=O)c2ccccc21 [Compound 4],decrease in TrxR activity in a dose-dependent manner
3,CC(=O)/C=C1/C(=O)N(Cc2ccccc2)c2ccccc21 [Compound 5],decrease in TrxR activity in a dose-dependent manner
4,CN1C(=O)/C(=C/C(=O)c2ccccc2)c2ccccc21 [Compound 6],did not cause apparent inhibition

# Same assay, conditions: 10 h treatment, 40 and 50 μM, p < 0.05 vs DMSO
row,Compound,"cellular TrxR activity at 40 and 50 μM, MCF-7 cells"
1,CC(=O)/C=C1/C(=O)N(Cc2ccccc2)c2ccccc21 [Compound 5],significant reduction
